The target in this assay is T1, human kidney renin (Homo sapiens, UniProt P00797).
T1 construct: Human renin was prepared from human kidney; from tissue; host or cells: human kidney
T1 sequence (P00797 67-406): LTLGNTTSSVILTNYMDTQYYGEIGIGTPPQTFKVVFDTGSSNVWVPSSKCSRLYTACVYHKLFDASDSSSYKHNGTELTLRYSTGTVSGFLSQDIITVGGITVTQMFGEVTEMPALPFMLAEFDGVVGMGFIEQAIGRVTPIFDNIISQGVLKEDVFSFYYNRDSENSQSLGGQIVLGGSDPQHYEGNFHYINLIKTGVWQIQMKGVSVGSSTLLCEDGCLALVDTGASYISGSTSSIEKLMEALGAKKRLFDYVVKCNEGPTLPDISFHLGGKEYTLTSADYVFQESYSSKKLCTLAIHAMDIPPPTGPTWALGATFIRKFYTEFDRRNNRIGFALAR
Put plainly: Radioimmunoassay screen for renin inhibitors (angiotensin I generation, then quantitation by radioimmunoassay). The class given is biochemical. To be noted: for IC50: human kidney renin, purified human plasma angiotensinogen, maleate buffer pH 6.0, 1 hour at 37° C., read-out: IC50 Molar Concentration. As to the method: Radioimmunoassay Screen For Renin Inhibitors
The in vitro method for the screening of anti-renin compounds involves, first, angiotensin I generation, and second, the quantitation of the angiotensin I produced by radioimmunoassay.
The incubation medium consisted of 20 μl of purified human plasma angiotensinogen (1); 40 μl of human kidney renin (2); 5 μl of phenylmethylsulfonyl fluoride; 10 μl of disodium EDTA (10 mM); 10 μl of antirenin compound (5×10^-3, 5×10^-4, 5×10^-5) in dimethylformamide, or ethanol and a suitable amount of maleate buffer (77mM, pH 6.0) to make a final volume of 500 μl. The reaction mixture was incubated for 1 hour at 37° C. and the enzymatic reaction was stopped by placing the tube in ice-cold water. The angiotension I generated during the incubation was measured by a radioimmunoassay plasma renin activity kit (Clinical Assays, Inc.).
Radioimmunoassay Procedure
The incubation medium consisted of either 100 μl aliquots of the above reaction mixture or a standard amount of angiotensin I; 1000 μl of phosphate buffer (100 mM, pH7.6) and 100 μl of (^125 I)angiotensin in a gamma-coat, tube. After three hours of incubation at room temperature, the tubes were decanted, and the radioactivity of each tube was determined in a gamma counter. Duplicate determinations were performed for each incubation. The results were expressed in ng of angiotensin I generated per ml of generation medium per hour of incubation (ng/AI/ml/hr), and the % of inhibition was obtained by the following: % inhibition= [formula]
The results of this test on representative compounds of this invention appear in Table I, expressed as an IC50.
(1) The human plasma angiotensinogen derived from the blood of a person receiving oral contraceptive pills was purified by chromatography on a pepstatin-aminohexyl-agarose column.
(2) Human renin was prepared from human kidney.

SMILES strings stand for the structures.

For the compound `CC(C)CO[C@@H](NC(=O)[C@H](Cc1ccccc1)NC(=O)OCc1ccccc1)C(=O)N[C@@H](CC1CCCCC1)[C@@H](O)c1ccccn1` [N-[N-(Phenylmethoxy)carbonyl-L-phenylalanyl-D-2-(2-methylpropoxy)glycyl]-(S)2-amino-3-cyclohexyl(R)1-(2-pyridinyl)propan-1-ol], the IC50 was 29000 nM. `CC(C)COC(NC(=O)[C@H](Cc1ccccc1)NC(=O)OCc1ccccc1)C(=O)N[C@H](C=O)Cc1ccccc1` (stereo partly drawn) [N-[(Phenylmethoxy)carbonyl]-L-phenylalanyl-N-[(S)-1-formyl-2-phenylethyl]-L-2-(2-methylpropoxy)glycinamide]: the “% Renin Inhibition” value runs as follows: (Molar Concentration 1 × 10^-4) 66%; (Molar Concentration 1 × 10^-5) 59%.

For the compound `CC(C)SC(NC(=O)[C@H](Cc1ccccc1)NC(=O)OCc1ccccc1)C(=O)N[C@@H](CC1CCCCC1)[C@@H](O)c1ccccn1` (stereo partly drawn) [N-[N-(Phenylmethoxy)carbonyl-L-phenylalanyl-L-2-(isopropylth] [N-[N-[(Phenylmethoxy)carbonyl]-L-phenylalanyl-L-2-(isopropylthio)glycyl]-(S)2-amino-3-cyclohexyl-(R)1-(2-pyridinyl)propan-1-ol], the IC50 was determined as 46 nM. Still for that read-out and setting: under `CC(C)COC(NC(=O)OCc1ccccc1)C(=O)N[C@@H](CC1CCCCC1)[C@@H](O)c1ccccn1` (stereo partly drawn) [N-[N-(Phenylmethoxy)carbonyl-L-2-(2-methylpropoxy)glycyl]-(S)2-amino-3-cyclohexyl(R)1-(2-pyridinyl)propan-1-ol] stands 160 nM; under `CC(C)C[C@@H](C=O)NC(=O)C(NC(=O)[C@H](Cc1ccccc1)NC(=O)OCc1ccccc1)OC(C)C` (stereo partly drawn) [N-[(Phenylmethoxy)carbonyl]-L-phenylalanyl-N-(S)-1-formyl-3-methylbutyl]-L-2-(1-methylethoxy)glycinamide], 10000 nM; under `CC(C)OC(NC(=O)[C@H](Cc1ccccc1)NC(=O)OCc1ccccc1)C(=O)N[C@@H](CC1CCCCC1)[C@@H](O)c1nccs1` (stereo partly drawn) [N-[N-(Phenylmethoxy)carbonyl-L-phenylalanyl-L-2-(1-methyleth] [N-[N-[(Phenylmethoxy)carbonyl-L-phenylalanyl-L-2-(1-methylethoxy)glycyl]-(S)2-amino-b 3-cyclohexyl-(R)1-(2-thiazolyl)propan-1-ol], 1 nM. `CC(C)CO[C@@H](NC(=O)[C@H](Cc1ccccc1)NC(=O)OCc1ccccc1)C(=O)N[C@@H](Cc1ccccc1)[C@@H](O)c1nccs1` [N-[N-(Benzyloxycarbonyl)-L-phenylalanyl-D-2-(2-methylpropoxy)glycyl]-(S)2-amino-3-phenyl-(R)1-(2-thiazoly)propan-1-ol]: the “% Renin Inhibition” value came out at 74.6% (Molar Concentration 1 × 10^-4), 69.2% (Molar Concentration 1 × 10^-5) and 41.0% (Molar Concentration 1 × 10^-6). As for `CC(C)C[C@H](NC(=O)C(NC(=O)[C@H](Cc1ccccc1)NC(=O)OCc1ccccc1)OC(C)C)[C@@H](O)c1nccs1` (stereo partly drawn) [N-[N-(Benzyloxycarbonyl)-L-phenylalanyl-L-2-(1-methylethoxy)glycyl]-(S)2-amino-4-methyl-(R)1-(2-thiazolyl)pentan-1-ol], the IC50 turned out to be 280 nM.

Turning to `CC(C)C[C@H](NC(=O)C(NC(=O)[C@H](Cc1ccccc1)NC(=O)OCc1ccccc1)SC(C)C)[C@@H](O)c1nccs1` (stereo partly drawn) [N-[N-[(Phenylmethoxy)carbonyl-L-phenylalanyl-L-2-(isopropylthio)glycyl]-(S)2-amino-4-methyl-(R)1-(2-thiazaolyl)pentan-1-ol], the IC50 was 14000 nM. On to `CC(C)COC(NC(=O)[C@H](Cc1ccccc1)NC(=O)OCc1ccccc1)C(=O)N[C@@H](CC1CCCCC1)[C@@H](O)c1nccs1` (stereo partly drawn) [N-[Phenylmethoxy)carbonyl]-L-phenylalanyl-D-2-(2-methylpropo] [N-[(Phenylmethoxy)carbonyl]-L-phenylalanyl-D 2-(2-methylpropoxy)glycyl-(1R,2S)-2-amino-3-cyclohexyl-1-(2-thiazolyl)propan-1-ol], for which the IC50 was determined as 11000 nM. Same read-out and setting: under `CC(C)C[C@H](NC(=O)C(NC(=O)[C@H](Cc1ccccc1)NC(=O)OCc1ccccc1)OC1CCCCC1)[C@@H](O)c1nccs1` (stereo partly drawn) [N-[N-(Benzyloxycarbonyl)-L-phenylalanyl-L-2-(cyclohexyloxy)glycyl]-(S)2-amino-4-methyl-(R)1-(2-thiazolyl)pentan-1-ol] stands 8500 nM; under `CC(C)OC(NC(=O)[C@H](Cc1ccccc1)NC(=O)OCc1ccccc1)C(=O)N[C@@H](CC1CCCCC1)[C@@H](O)c1ccccn1` (stereo partly drawn) [N-[N-[ (Phenylmethoxy)carbonyl]-L-phenylalanyl-L-2-(1-methylethoxy)glycyl]-(S)2-amino-3-cyclohexyl-(R)1-(2-pyridinyl)propan-1-ol], 24 nM. As for `CC(C)CO[C@H](NC(=O)[C@H](Cc1ccccc1)NC(=O)OCc1ccccc1)C(=O)N[C@@H](Cc1ccccc1)[C@@H](O)c1nccs1` [N-[N-(Benzyloxycarbonyl)-L-phenylalanyl-L-2-(2-methylpropxy)glycyl]-(S)2-amino-3-phenyl-(R)1-(2-thiazolyl)propan-1-ol], the IC50 amounted to 470 nM. Further, the “% Renin Inhibition” value (Molar Concentration 1 × 10^-4) amounted to 85.0%. Besides, the “% Renin Inhibition” value (Molar Concentration 1 × 10^-5) worked out at 84.6%. Besides, the “% Renin Inhibition” value (Molar Concentration 1 × 10^-6) is listed as 76.2%. As for `CC(C)O[C@@H](NC(=O)[C@H](Cc1ccccc1)NC(=O)OCc1ccccc1)C(=O)N[C@@H](CC1CCCCC1)[C@@H](O)c1ccccn1` [N-[N-[(Phenylmethoxy)carbonyl]-L-phenylalanyl-D-2-(1-methylethoxy)glycyl]-(S)2-amino-3-cyclohexyl-(R)1-(2-pyridinyl)propan-1-ol], the IC50 stood at 1000 nM. On to `CC(C)CO[C@H](NC(=O)[C@H](Cc1ccccc1)NC(=O)OCc1ccccc1)C(=O)N[C@H](C=O)CC(C)C` [N-[(Phenylmethoxy)carbonyl]-L-phenylalanyl-N-[(S)-1-formyl-3-methylbutyl]-L-2-(2-methylpropoxy)glycinamide], for which the “% Renin Inhibition” value (Molar Concentration 1 × 10^-4) is reported as 70% and the “% Renin Inhibition” value (Molar Concentration 1 × 10^-5) is recorded as 50%. `CC(C)C[C@H](NC(=O)[C@H](Cc1ccccc1)NC(=O)OC(C)(C)C)C(=O)N[C@@H](CC1CCCCC1)[C@@H](O)c1ccco1` [N-[N-tert-Butoxycarbonyl)-L-phenylalanyl-L-leucyl]-(S)2-amino-3-cyclohexyl-(R)1-(2-furanyl)propan-1-ol]: the IC50 is 24 nM. The same measure, in the same setting: with `CC(C)COC(NC(=O)[C@H](Cc1ccccc1)NC(=O)OCc1ccccc1)C(=O)N[C@@H](CC1CCCCC1)[C@@H](O)c1nccs1` (stereo partly drawn) [N-[(Phenylmethoxy)carbonyl]-phenylalanyl-L-2-(2-methylpropox] [N-[(Phenylmethoxy)carbonyl]-L-phenylalanyl-L-2-(2-methylpropoxy)glycyl]-(1R,2S)-2-amino-3-cyclohexyl-1-(2-thiazolyl)propan-1-ol] the figure was 87 nM. In the case of `CC(C)C[C@H](NC(=O)C(NC(=O)[C@H](Cc1ccccc1)NC(=O)OCc1ccccc1)SC(C)C)[C@@H](O)c1nccs1` (stereo partly drawn) [N-[N-[(phenylmethoxy)carbonyl]-L-phenylalanyl-D-2-(isopropylthio)glycyl]-(S)2-amino-4-methyl-(R)1-(2-thiazolyl)pentan-1-ol], the “% Renin Inhibition” value (Molar Concentration 1 × 10^-4) is given as 25%. With `CC(C)SC(NC(=O)[C@H](Cc1ccccc1)NC(=O)OCc1ccccc1)C(=O)N[C@@H](CC1CCCCC1)[C@@H](O)c1ccccn1` (stereo partly drawn) [N-[N-(phenylmethoxy)carbonyl-L-phenylalanyl-D-2-(isopropylth] [N-[N[(phenylmethoxy)carbonyl]-L-phenylalanyl-D-2-(isopropylthio)glycyl]-(S)2-amino-3-cyclohexyl-(R)1-(2-pyridinyl)-propan-1-ol], the IC50 was determined as 16000 nM.

As for `CC(C)COC(NC(=O)[C@H](Cc1ccccc1)NC(=O)OCc1ccccc1)C(=O)N[C@@H](CC(C)C)[C@@H](O)c1ncnn1C` (stereo partly drawn) [N-[N-(Benzyloxycarbonyl)-L-phenylalanyl-L-2-(2-methylpropoxy)glycl]-(S)2-amino-4-methyl(R)1-(1-methyl-1H-1,2,4-triazol-5-yl)pentan-1-ol], the “% Renin Inhibition” value (Molar Concentration 1 × 10^-4) was 32%. For the compound `CC(C)C[C@H](NC(=O)[C@H](Cc1ccccc1)NC(=O)OC(C)(C)C)C(=O)N[C@@H](CC(C)C)[C@@H](O)c1cccs1` [N-[N-(tert-Butoxycarbonyl)-L-phenylalanyl-L-leucyl]-(S)2-amino-4-methyl-(R)1-(2-thienyl)-pentan-1-ol], the IC50 was determined as 4500 nM.
